Experimental data taken from US7189720B2 (H. Lundbeck A/S, priority 1999, dated 2007).

target: T1, human Y5 receptor (Homo sapiens, UniProt Q15761); test: Radioligand binding to membranes, cloned human Y5 receptor; conditions: Table 1; read-out: Ki (nM) hNPY-5
T1 construct: expressed in transfected cells; host or cells: mouse fibroblast LM(tk-) cells, e.g. L-hY5-7 (ATCC CRL-11995)
T1 sequence (Q15761 1-445): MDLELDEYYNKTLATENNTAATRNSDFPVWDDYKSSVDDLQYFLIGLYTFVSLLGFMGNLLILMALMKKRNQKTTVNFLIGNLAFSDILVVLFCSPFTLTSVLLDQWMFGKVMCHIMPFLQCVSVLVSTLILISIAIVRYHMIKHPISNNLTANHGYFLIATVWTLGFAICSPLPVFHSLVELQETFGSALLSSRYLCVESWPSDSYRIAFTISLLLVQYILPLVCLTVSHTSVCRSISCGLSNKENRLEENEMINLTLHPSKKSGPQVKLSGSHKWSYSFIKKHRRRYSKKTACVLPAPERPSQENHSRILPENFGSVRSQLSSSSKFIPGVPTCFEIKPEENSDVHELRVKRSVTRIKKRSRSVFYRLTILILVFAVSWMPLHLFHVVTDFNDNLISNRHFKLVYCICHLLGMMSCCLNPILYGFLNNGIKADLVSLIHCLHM

Ki [nM]	SMILES
19	CC(C)Nc1nc(NCC2CCC(CNS(=O)(=O)c3cccc4ccccc34)CC2)nc(N2CCCC2)n1 (stereo not drawn) [Example 20, N1-[4-([4-(isopropylamino)-6-tetrahydro-1H-1-pyrrolyl-1,3,5-triazin-2-yl]aminomethyl)cyclohexyl]methyl-1-naphthalenesulfonamide]
38	CC(C)Nc1nc(NCC2CCC(CNS(=O)(=O)c3cccc4ccccc34)CC2)nc(N2CCCCC2)n1 (stereo not drawn) [Example 22, N1-{[4-({[4-(isopropylamino)-6-piperidino-1,3,5-triazin-2-yl]amino}methyl)cyclohexyl]methyl}-1-naphthalenesulfonamide]
68	CC(C)Nc1nc(NCC2CCC(CNS(=O)(=O)c3cccc4ccccc34)CC2)nc(N2CCCCC2C)n1 (stereo not drawn) [Example 23, N1-[4-([4-(isopropylamino)-6-(2-methylpiperidino)-1,3,5-triazin-2-yl]aminomethyl)cyclohexyl]methyl-1-naphthalenesulfonamide]
7	CCNc1nc(NCC2CCC(CNS(=O)(=O)c3cccc4ccccc34)CC2)nc(NC(C)C)n1 (stereo not drawn) [Example 2, N1-[4-([4-(ethylamino)-6-(isopropylamino)-1,3,5-triazin-2-yl]aminomethyl)cyclohexyl]methyl-1-naphthalenesulfonamide]
12	C=CCNc1nc(NCC2CCC(CNS(=O)(=O)c3cccc4ccccc34)CC2)nc(NC(C)C)n1 (stereo not drawn) [Example 3, N1-{[4-({[4-(Allylamino)-6-(isopropylamino)-1,3,5-triazin-2-yl]amino}methyl)cyclohexyl]methyl}-1-naphthalenesulfonamide]
35	CC(C)Nc1nc(NCCO)nc(NCC2CCC(CNS(=O)(=O)c3cccc4ccccc34)CC2)n1 (stereo not drawn) [Example 11, N1-[4-([4-[(2-hydroxyethyl)amino]-6-(isopropylamino)-1,3,5-triazin-2-yl]aminomethyl)cyclohexyl]methyl-1-naphthalenesulfonamide]
9	CC(C)Nc1nc(NCC2CCC(CNS(=O)(=O)c3cccc4ccccc34)CC2)nc(NC2CC2)n1 (stereo not drawn) [Example 8, N1-[4-([4-(cyclopropylamino)-6-(isopropylamino)-1,3,5-triazin-2-yl]aminomethyl)cyclohexyl]methyl-1-naphthalenesulfonamide]
32	CCN(C)c1nc(NCC2CCC(CNS(=O)(=O)c3cccc4ccccc34)CC2)nc(NC(C)C)n1 (stereo not drawn) [Example 18, N1-[4-([4-[ethyl(methyl)amino]-6-(isopropylamino)-1,3,5-triazin-2-yl]aminomethyl)cyclohexyl]methyl-1-naphthalenesulfonamide]
313	COc1ccc(CCNc2nc(NCC3CCC(CNS(=O)(=O)c4cccc5ccccc45)CC3)nc(NC(C)C)n2)cc1 (stereo not drawn) [Example 16, N1-({4-[({4-(isopropylamino)-6-[(4-methoxyphenethyl)amino]-1,3,5-triazin-2-yl}amino)methyl]cyclohexyl}methyl)-1-naphthalenesulfonamide]
71	COC[C@@H]1CCCN1c1nc(NCC2CCC(CNS(=O)(=O)c3cccc4ccccc34)CC2)nc(NC(C)C)n1 (stereo partly drawn) [Example 21, N1-(4-[(4-(isopropylamino)-6-[(2S)-2-(methoxymethyl)tetrahydro-1H-1-pyrrolyl]-1,3,5-triazin-2-ylamino)methyl]cyclohexylmethyl)-1-naphthalenesulfonamide]
22	CC(C)Nc1nc(NCC2CCC(CNS(=O)(=O)c3cccc4ccccc34)CC2)nc(NC2CCC2)n1 (stereo not drawn) [Example 7, N1-[4-([4-(cyclobutylamino)-6-(isopropylamino)-1,3,5-triazin-2-yl]aminomethyl)cyclohexyl]methyl-1-naphthalenesulfonamide]
81	CC(C)Nc1nc(NCCC#N)nc(NCC2CCC(CNS(=O)(=O)c3cccc4ccccc34)CC2)n1 (stereo not drawn) [Example 10, N1-[4-([4-[(2-cyanoethyl)amino]-6-(isopropylamino)-1,3,5-triazin-2-yl]aminomethyl)cyclohexyl]methyl-1-naphthalenesulfonamide]

same assay, conditions: Table 2; read-out: Ki (nM) hNPY-5

Ki [nM]	SMILES
313	CCNc1nc(NCC)nc(NCC2CCC(CNS(=O)(=O)c3cn(C)cn3)CC2)n1 (stereo not drawn) [Example 38, N4-[4-([4,6-di(ethylamino)-1,3,5-triazin-2-yl]aminomethyl)cyclohexyl]methyl-1-methyl-1H-4-imidazolesulfonamide]
25	CCNc1nc(NCC)nc(NCC2CCC(CNS(=O)(=O)c3cc(C)ccc3OC)CC2)n1 (stereo not drawn) [Example 31, N1-[4-([4,6-di(ethylamino)-1,3,5-triazin-2-yl]aminomethyl)cyclohexyl]methyl-2-methoxy-5-methyl-1-benzenesulfonamide]
71	CCNc1nc(NCC)nc(NCC2CCC(CNS(=O)(=O)c3oc(C)nc3C)CC2)n1 (stereo not drawn) [Example 36, N5-[4-([4,6-di(ethylamino)-1,3,5-triazin-2-yl]aminomethyl)cyclohexyl]methyl-2,4-dimethyl-1,3-oxazole-5-sulfonamide]

same assay, conditions: Table 5; read-out: Ki, nM hNPY-5

Ki [nM]	SMILES
72	Cc1nc(-c2csc(NC[C@H]3CC[C@H](N(C=O)C(C)C)CC3)n2)c(C)s1 [Example 102, trans-N-[4-([4-(2,5-Dimethyl-1,3-thiazol-4-yl)-1,3-thiazol-2-yl]aminomethyl)cyclohexyl]-N-isopropylformamide]
12.3	O=S(=O)(N[C@H]1CC[C@H](CNc2nc(-c3cccnc3)cs2)CC1)c1ccccc1F [Example 86, trans-2-(4-(2-Fluorophenyl)sulfonylamino)cyclohexylmethyl-amino-4-(3-pyridyl)thiazole dihydrogen chloride]
7.9	COc1ccc(C)cc1S(=O)(=O)NCCCCCNc1nc(-c2cccs2)cs1 [Example 92, N1-(5-{[4-(2-Thienyl)-1,3-thiazol-2-yl]amino}pentyl)-2-methoxy-5-methyl-1-benzenesulfonamide]
12.4	CN(C)S(=O)(=O)NCCCCCNc1nc(-c2cccs2)cs1 [Example 91, N,N-Dimethyl-N′-(5-{[4-(2-thienyl)-1,3-thiazol-2-yl]amino}-pentyl)sulfamide]
13.7	COc1ccc(C)cc1S(=O)(=O)NCCCCCNc1nc(-c2nccs2)cs1 [Example 88, N1-(5-[4-(1,3-thiazol-2-yl)-1,3-thiazol-2-yl]aminopentyl)-2-methoxy-5-methyl-1-benzenesulfonamide]

same assay, conditions: Table 6; read-out: Ki, nM hNPY-5

SMILES	Ki [nM]
O=S(=O)(NCCCCCCNc1nc2c(s1)CCSc1ccccc1-2)c1cccc(C(F)(F)F)c1 [Example 144, N1-[6-(4,5-dihydrobenzo[2,3]thiepino[4,5-d][1,3]thiazol-2-ylamino)hexyl]-3-(trifluoromethyl)-1-benzenesulfonamide]	22.4
O=S(=O)(NC[C@H]1CC[C@H](Nc2nc3c(s2)CCSc2ccccc2-3)CC1)c1cccc(C(F)(F)F)c1 [Example 150, N1-{[4-(4,5-Dihydrobenzo[2,3]thiepino[4,5-d][1,3]thiazol-2-ylamino)cyclohexyl]methyl}-3-(trifluoromethyl)-1-benzenesulfonamide]	21
COCCN(C=O)[C@H]1CC[C@H](CNc2nc3c(s2)CCSc2ccccc2-3)CC1 [Example 163, trans-N-4-[(4,5-dihydrobenzo[2,3]thiepino[4,5-d][1,3]thiazol-2-ylamino)methyl]cyclohexyl-N-(2-methoxyethyl)formamide]	12.3
CC(C)N(C=O)[C@H]1CC[C@H](CNc2nc3c(s2)CCSc2ccc(F)cc2-3)CC1 [Example 166, N-(4-[(9-Fluoro-4,5-dihydrobenzo[2,3]thiepino[4,5-d][1,3]thiazol-2-yl)amino]methylcyclohexyl)-N-isopropylformamide]	6
O=S(=O)(NC[C@H]1CC[C@H](Nc2nc3c(s2)CCSc2ccccc2-3)CC1)c1ccc(F)cc1 [Example 155, N1-{[4-(4,5-Dihydrobenzo[2,3]thiepino[4,5-d][1,3]thiazol-2-ylamino)cyclohexyl]methyl}-4-fluoro-1-benzenesulfonamide]	9.1
O=S(=O)(Cc1ccccc1)NC[C@H]1CC[C@H](Nc2nc3c(s2)CCSc2ccccc2-3)CC1 [Example 153, N-{[4-(4,5-Dihydrobenzo[2,3]thiepino[4,5-d][1,3]thiazol-2-ylamino)cyclohexyl]methyl}phenyl-methanesulfonamide]	8.9
O=S(=O)(NC[C@H]1CC[C@H](Nc2nc3c(s2)CCSc2ccccc2-3)CC1)c1ccc(-c2ccon2)s1 [Example 126, N2-{[4-(4,5-Dihydrobenzo[2,3]thiepino[4,5-d][1,3]thiazol-2-ylamino)cyclohexyl]methyl}-5-(3-isoxazolyl)-2-thiophenesulfonamide]	34
O=S(=O)(NCCCCCNc1nc2c(s1)CCSc1ccccc1-2)c1c(Cl)cccc1Cl [Example 131, N1-[5-(4,5-Dihydrobenzo[2,3]thiepino[4,5-d][1,3]thiazol-2-ylamino)pentyl]-2,6-dichloro-1-benzenesulfonamide]	71

Results, then the compound that gave them:

Ki [nM]	SMILES
27	CN(C)c1cccc2c(S(=O)(=O)NC[C@H]3CC[C@H](Nc4nc5c(s4)CCSc4ccccc4-5)CC3)cccc12 [Example 122, N1-{[4-(4,5-Dihydrobenzo[2,3]thiepino[4,5-d][1,3]thiazol-2-ylamino)cyclohexyl]methyl}-5-(dimethylamino)-1-naphthalenesulfonamide]
14.1	COc1ccc(C)cc1S(=O)(=O)NC[C@H]1CC[C@H](Nc2nc3c(s2)CCSc2ccccc2-3)CC1 [Example 119, N1-{[4-(4,5-Dihydrobenzo[2,3]thiepino[4,5-d][1,3]thiazol-2-ylamino)cyclohexyl]methyl}-2-methoxy-5-methyl-1-benzenesulfonamide]
